{"source": "patent US6075033A", "about": "“Anthranilic acid diamides derivatives, their preparation and pharmaceutical use as anti-gastrin agents” (Rotta Research Laboratorium S.p.A, priority 1996, dated 2000)", "key": {"[1]": {"target": "T1, central CCK-B receptor (Cavia porcellus, UniProt H0VZC5)", "T1 construct": "Cerebral cortexes of male albino guinea pigs were therefore used; from tissue; host or cells: cerebral cortex membranes of male albino guinea pigs", "T1 sequence (H0VZC5 1-426)": "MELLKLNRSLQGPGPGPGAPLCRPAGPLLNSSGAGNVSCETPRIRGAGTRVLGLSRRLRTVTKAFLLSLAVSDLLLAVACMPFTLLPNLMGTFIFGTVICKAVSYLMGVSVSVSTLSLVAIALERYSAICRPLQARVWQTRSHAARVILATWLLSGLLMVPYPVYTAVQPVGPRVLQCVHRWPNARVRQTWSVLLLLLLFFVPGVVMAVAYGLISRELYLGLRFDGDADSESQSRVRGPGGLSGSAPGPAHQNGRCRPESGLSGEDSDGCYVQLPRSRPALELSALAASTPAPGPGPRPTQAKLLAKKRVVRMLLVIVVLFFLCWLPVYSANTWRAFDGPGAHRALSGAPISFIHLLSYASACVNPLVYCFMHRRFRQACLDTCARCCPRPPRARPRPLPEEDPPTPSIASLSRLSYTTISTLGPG", "assay": "Inhibition of the binding of [3H]-[pBC264]CCK-7 to guinea-pig cortex membranes", "settings": "for IC50: guinea-pig cortex membranes, 0.2 nM radioligand, read-out: IC50, displacement of [3H][pBC264]CCK-7 from the receptor; for times less active than the corresponding (R) derivative: on average, CCK-B binding", "excerpt": "(§1) [3-H][pBC264]CCK-7 was used to evaluate the ability of the compounds of the invention to interact with the central CCK-B receptor. This ligand has been show: to be selective for the CCK-B receptors since it has an affinity for the cortex (CCK-B) receptors 3 logarithmic orders of magnitude greater than for those of the pancreas (CCK-A) in the guinea pig (C. Durieux et al. Eur. J. Pharmacol. 168 (1989 page 269].\n(§2) Cerebral cortexes of male albino guinea pigs were therefore used with the method given above, to obtain a membrane content corresponding to about 300 mcg of proteins/ml incubated with a final concentration of 0.2 nM of radioligand.\n(§3) The results obtained for some of the compounds of the invention are shown in Table 2 in which the IC50, that is, the concentration (in micromoles/liter) of the antagonist which can displace 50% of the [3-H](pBC264]CCK-7 from the receptor, is given."}, "[2]": {"target": "T2, type B (CCK-B) gastrin or cholecystokinin receptors (Oryctolagus cuniculus, UniProt P46627)", "T2 construct": "rabbit gastric mucous-membrane cells were prepared by conventional techniques; endogenous in cells; host or cells: dispersed rabbit gastric mucous-membrane cells (collagenase and pronase)", "T2 sequence (P46627 1-452)": "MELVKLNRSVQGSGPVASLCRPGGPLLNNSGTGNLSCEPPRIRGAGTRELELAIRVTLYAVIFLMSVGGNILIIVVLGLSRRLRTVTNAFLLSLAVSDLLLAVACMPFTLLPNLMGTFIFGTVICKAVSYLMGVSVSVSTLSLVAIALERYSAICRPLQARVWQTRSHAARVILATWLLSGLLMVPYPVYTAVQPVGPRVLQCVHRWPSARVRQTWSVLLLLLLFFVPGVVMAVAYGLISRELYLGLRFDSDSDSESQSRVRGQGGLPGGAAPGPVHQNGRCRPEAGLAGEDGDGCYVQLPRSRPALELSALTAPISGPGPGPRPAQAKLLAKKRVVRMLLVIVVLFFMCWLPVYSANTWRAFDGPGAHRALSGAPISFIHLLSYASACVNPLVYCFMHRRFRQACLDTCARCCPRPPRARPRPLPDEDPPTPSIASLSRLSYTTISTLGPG", "assay": "Inhibition of the increase in cytosol calcium induced by gastrin in rabbit gastric mucous-membrane cells", "type": "cell-based", "settings": "5×10-8 gastrin", "excerpt": "The parietal cells of the gastric mucous membrane are responsible for the secretion of HCl. They have specific membrane receptors which can be activated by gastrin and which have been defined as type B (CCK-B) gastrin or cholecystokinin receptors.\nSince it has been observed that the activation of CCK-B receptors by gastrin leads to an increase in the level of cytosol calcium ions, a technique of measurement of the increase in intracellular calcium induced by gastrin in the presence and in the absence of the compounds of the invention was used as an indication of the anti-gastrin activity of the compounds.\nSuspensions (0.8×10^6 /ml) of rabbit gastric mucous-membrane cells were prepared by conventional techniques with the use of collagenase and pronase as digestive enzymes; the basal [Ca^2+ ]i values, that is, those reached […] stimulation of the cellular system, were estimated in accordance with Grynkiewicz et al [J. Biol. Chem. 260 (1985), 3440]. In the control samples, the cells were stimulated with […], whereas in the samples in which the effect of the compounds of the invention was evaluated, the cells were incubated with these compounds before stimulation with gastrin. The results are expressed as percentage increments of [Ca^2+ ]i with reference to the control value. The anti-gastrin activity of the compounds was expressed as the IC50 value, that is, the concentration (in micromoles/liter) at which the response to the stimulus induced by gastrin was reduced by 50%."}, "[3]": {"test_system": "central CCK-B receptor", "assay": "Inhibition of the binding of [3H]-[pBC264]CCK-7 to guinea-pig cortex membranes", "settings": "CCK-B binding (Table 2) compared with CCK-A gall bladder activity", "excerpt": "as §1, §2, §3"}, "[4]": {"test_system": "rat", "assay": "Anxiolytic activity, elevated plus-maze in the rat", "type": "in vivo", "excerpt": "An important role has in fact recently been postulated for the central CCK-B receptor in anxiety. […] In this experimental model, a compound having anxiolytic activity produces a % increase in the time spent in the open limbs and a % increase in the number of entries to the open limbs.\nThe results obtained are shown in Table 4 below, in which the activities obtained with various doses of compound 1 administered by an intraperitoneal route (IP) in comparison with a group of animals treated with physiological solution by the same route."}}, "data": [{"molecule": "Cc1cc(C)c(NC(=O)C[C@@H](CC(=O)O)c2cccc3ccccc23)c(C(=O)N2CCC3(CCCC3)CC2)c1", "note": "[Compound 4]", "values": [{"measurement": "IC50", "setting": "[1]", "result": 54.7, "unit": "nM"}, {"measurement": "times less active than the corresponding (R) derivative", "setting": "[1]", "result": "~10", "unit": "times"}, {"measurement": "IC50, inhibition of gastrin-induced increase in cytosol calcium", "setting": "[2]", "result": 68.8, "unit": "nM"}]}, {"molecule": "Cc1cc(Cl)c(NC(=O)C[C@@H](CC(=O)O)c2cccc3ccccc23)c(C(=O)N2CCC3(CCCC3)CC2)c1", "note": "[Compound 5]", "values": [{"measurement": "IC50", "setting": "[1]", "result": 22.9, "unit": "nM"}, {"measurement": "times less active than the corresponding (R) derivative", "setting": "[1]", "result": "~10", "unit": "times"}, {"measurement": "IC50, inhibition of gastrin-induced increase in cytosol calcium", "setting": "[2]", "result": 82, "unit": "nM"}]}, {"molecule": "Cc1cc(C)c(NC(=O)C[C@H](CC(=O)O)c2cccc3ccccc23)c(C(=O)N2CCC3(CCCC3)CC2)c1", "note": "[Compound 1]", "values": [{"measurement": "IC50", "setting": "[1]", "result": 5.1, "unit": "nM"}, {"measurement": "affinity for the gastrin receptor (CCK-B) relative to the cholecystokinin receptor (CCK-A)", "setting": "[3]", "result": "at least 1000 times"}, {"measurement": "% effect Vs controls (entries open limbs/total entries)", "setting": "[4]; 0.03 mg/kg I.P.", "result": 32.6, "unit": "%"}, {"measurement": "% effect Vs controls (time open limbs/total time)", "setting": "[4]; 0.03 mg/kg I.P.", "result": 26.4, "unit": "%"}, {"measurement": "Entries open limbs/total entries (%)", "setting": "[4]; 0.03 mg/kg I.P.", "result": 42.2, "unit": "%"}, {"measurement": "Time open limbs/total time (%)", "setting": "[4]; 0.03 mg/kg I.P.", "result": 27.5, "unit": "%"}, {"measurement": "% effect Vs controls (entries open limbs/total entries)", "setting": "[4]; 0.3 mg/kg I.P.", "result": 31.5, "unit": "%"}, {"measurement": "% effect Vs controls (time open limbs/total time)", "setting": "[4]; 0.3 mg/kg I.P.", "result": 50.9, "unit": "%"}, {"measurement": "% of time spent in the open limbs vs control group (in words)", "setting": "[4]; 0.3 mg/kg I.P.", "result": "this increase is significant"}, {"measurement": "Entries open limbs/total entries (%)", "setting": "[4]; 0.3 mg/kg I.P.", "result": 41.8, "unit": "%"}, {"measurement": "Time open limbs/total time (%)", "setting": "[4]; 0.3 mg/kg I.P., (*) Duncan test p < 0.05 vs control group", "result": 32.8, "unit": "%"}, {"measurement": "% effect Vs controls (entries open limbs/total entries)", "setting": "[4]; 3.0 mg/kg I.P.", "result": 26.3, "unit": "%"}, {"measurement": "% effect Vs controls (time open limbs/total time)", "setting": "[4]; 3.0 mg/kg I.P.", "result": 38.5, "unit": "%"}, {"measurement": "Entries open limbs/total entries (%)", "setting": "[4]; 3.0 mg/kg I.P.", "result": 40.2, "unit": "%"}, {"measurement": "Time open limbs/total time (%)", "setting": "[4]; 3.0 mg/kg I.P.", "result": 30.1, "unit": "%"}, {"measurement": "% of entries to the open limbs over total entries vs controls (in words)", "setting": "[4]; dose range 0.03-3 mg/kg I.P.", "result": "increases the % of entries to the open limbs"}, {"measurement": "anxiolytic activity (in words)", "setting": "[4]; plus maze, I.P.", "result": "shows anxiolytic activity"}, {"measurement": "IC50, inhibition of gastrin-induced increase in cytosol calcium", "setting": "[2]", "result": 4.3, "unit": "nM"}]}, {"molecule": "Cc1cc(Cl)c(NC(=O)C[C@H](CC(=O)O)c2cccc3ccccc23)c(C(=O)N2CCC3(CCCC3)CC2)c1", "note": "[Compound 2]", "values": [{"measurement": "IC50", "setting": "[1]", "result": 2.5, "unit": "nM"}, {"measurement": "IC50, inhibition of gastrin-induced increase in cytosol calcium", "setting": "[2]", "result": 3.5, "unit": "nM"}]}]}
